Patent publication US20250127732A1 (AXSOME THERAPEUTICS, INC., priority 2018, published 2025)

Legend:
[1] = clinical; conditions: human, in vivo, po, 105 mg
[2] = Part 3: randomized, double-blind, placebo-controlled multiple-dose trial of S- and R-bupropion with pharmacokinetic sampling (plasma concentrations Day 7); format: in vivo; conditions: human, 105 mg BID SR tablets oral, fasting, Day 7 at 3-4 hours after dosing, n = 15
Procedure: A randomized, double-blind, multiple-dose, placebo-controlled, parallel group trial was conducted to examine the safety and tolerability of the pure S-and R-enantiomers of bupropion, with pharmacokinetic sampling.

| AUC(0-t) at 12 h [1] [ng·h/mL] | Mean concentration of bupropion [2] [ng/mL] | Compound |
| --- | --- | --- |
| 793 | 170.9 | C[C@H](NC(C)(C)C)C(=O)c1cccc(Cl)c1 [S-bupropion, (S)-bupropion] |
| – | 15.1 | C[C@@H](NC(C)(C)C)C(=O)c1cccc(Cl)c1 [R-bupropion, (R)-bupropion, reference compound] |
